Measured values: patent publication US20240108725A1, “METHOD FOR TREATING CANCER AND SYSTEM FOR SAME” (OTSUKA MEDICAL DEVICES CO., LTD, priority 2020, published 2024)

Test system: TL-Om1 cells
Test: Rate of dead cells after 5-ALA PDT in erythrocyte solution, TL-Om1 cells, Example 3
Type: cell-based, human
Method: C6 cells or human leukemia cell line TL-Oml cells were cultured in 2.5% FBS/F-12K medium (C6 cells) or 10% FBS/RPMI1640 (TL-Oml cells) supplemented with 5-ALA to a final concentration of 0.125 to 0.5 mM in a 5% CO2 incubator at 37° C. for 4 hours. After the culture, the cells were removed with a 0.25% trypsin-EDTA solution, and the collected cells were adjusted to 2×10^7 cells/mL with an erythrocyte solution (a solution in which erythrocytes and PBS were mixed at a ratio of 45:55). The cell suspension thus prepared was injected into a Tygon tube (inner diameter: 0.79 mm), wrapped around a light irradiator, and irradiated with light having a wavelength of 630 nm so that the irradiation energy density was 0.5 to 500 J/cm^2. After the irradiation, an ammonium chloride solution was added to the cell suspension to hemolyze the erythrocytes. Cells before the PDT treatment, after the PDT treatment, and after 24-hour culture were stained with the FITC Annexin V Apoptosis Detection Kit I and the rate of dead cells was analyzed with a flow cytometer.

[1] = 5-ALA 0.125 mM, 10 J/cm^2, 24 hours after irradiation
[2] = 5-ALA 0.125 mM, 50 J/cm^2, 24 hours after irradiation
[3] = 5-ALA 0.125 mM, 100 J/cm^2, 24 hours after irradiation
[4] = 5-ALA 0.125 mM, 200 J/cm^2, 24 hours after irradiation
[5] = 5-ALA 0.125 mM, 300 J/cm^2, 24 hours after irradiation
[6] = 5-ALA 0.125 mM, 400 J/cm^2, 24 hours after irradiation
[7] = 5-ALA 0.125 mM, 500 J/cm^2, 24 hours after irradiation
[8] = 5-ALA 0.25 mM, 1 J/cm^2, 24 hours after irradiation
[9] = 5-ALA 0.25 mM, 1 J/cm^2, immediately after irradiation
[10] = 5-ALA 0.25 mM, 2.5 J/cm^2, 24 hours after irradiation
[11] = 5-ALA 0.25 mM, 2.5 J/cm^2, immediately after irradiation
[12] = 5-ALA 0.25 mM, 5 J/cm^2, 24 hours after irradiation
[13] = 5-ALA 0.25 mM, 5 J/cm^2, immediately after irradiation
[14] = 5-ALA 0.25 mM, 10 J/cm^2, 24 hours after irradiation
[15] = 5-ALA 0.25 mM, 10 J/cm^2, immediately after irradiation
[16] = 5-ALA 0.25 mM, 50 J/cm^2, 24 hours after irradiation
[17] = 5-ALA 0.25 mM, 50 J/cm^2, immediately after irradiation
[18] = 5-ALA 0.25 mM, 100 J/cm^2, 24 hours after irradiation
[19] = 5-ALA 0.25 mM, 100 J/cm^2, immediately after irradiation
[20] = 5-ALA 0.25 mM, 200 J/cm^2, 24 hours after irradiation
[21] = 5-ALA 0.25 mM, 200 J/cm^2, immediately after irradiation
[22] = 5-ALA 0.25 mM, 300 J/cm^2, 24 hours after irradiation
[23] = 5-ALA 0.25 mM, 300 J/cm^2, immediately after irradiation
[24] = 5-ALA 0.25 mM, 400 J/cm^2, 24 hours after irradiation
[25] = 5-ALA 0.25 mM, 400 J/cm^2, immediately after irradiation
[26] = 5-ALA 0.25 mM, 500 J/cm^2, 24 hours after irradiation
[27] = 5-ALA 0.25 mM, 500 J/cm^2, immediately after irradiation
[28] = 5-ALA 0.5 mM, 1 J/cm^2, immediately after irradiation
[29] = 5-ALA 0.5 mM, 2.5 J/cm^2, immediately after irradiation
[30] = 5-ALA 0.5 mM, 5 J/cm^2, immediately after irradiation
[31] = 5-ALA 0.5 mM, 10 J/cm^2, immediately after irradiation
[32] = 5-ALA 0.5 mM, 50 J/cm^2, immediately after irradiation
[33] = 5-ALA 0.5 mM, 100 J/cm^2, immediately after irradiation
[34] = 5-ALA 0.5 mM, 200 J/cm^2, immediately after irradiation
[35] = 5-ALA 0.5 mM, 300 J/cm^2, immediately after irradiation
[36] = 5-ALA 0.5 mM, 400 J/cm^2, immediately after irradiation
[37] = 5-ALA 0.5 mM, 500 J/cm^2, immediately after irradiation

Compound: NCC(=O)CCC(=O)O [5-ALA, 5-aminolevulinic acid]
- Annexin V+/PI+ (%) [1]: 6%
- Annexin V+/PI− (%) [1]: 4%
- Annexin V+/PI+ (%) [2]: 6%
- Annexin V+/PI− (%) [2]: 4%
- Annexin V+/PI+ (%) [3]: 6%
- Annexin V+/PI− (%) [3]: 5%
- Annexin V+/PI+ (%) [4]: 7%
- Annexin V+/PI− (%) [4]: 4%
- Annexin V+/PI+ (%) [5]: 9%
- Annexin V+/PI− (%) [5]: 4%
- Annexin V+/PI+ (%) [6]: 12%
- Annexin V+/PI− (%) [6]: 8%
- Annexin V+/PI+ (%) [7]: 33%
- Annexin V+/PI− (%) [7]: 14%
- Annexin V+/PI+ (%) [8]: 4%
- Annexin V+/PI− (%) [8]: 6%
- Annexin V−/PI− (%) [8]: 90%
- Annexin V+/PI+ (%) [9]: 8%
- Annexin V+/PI− (%) [9]: 4%
- Annexin V−/PI− (%) [9]: 88%
- Annexin V+/PI+ (%) [10]: 4%
- Annexin V+/PI− (%) [10]: 7%
- Annexin V−/PI− (%) [10]: 89%
- Annexin V+/PI+ (%) [11]: 6%
- Annexin V+/PI− (%) [11]: 4%
- Annexin V−/PI− (%) [11]: 89%
- Annexin V+/PI+ (%) [12]: 4%
- Annexin V+/PI− (%) [12]: 8%
- Annexin V−/PI− (%) [12]: 88%
- Annexin V+/PI+ (%) [13]: 7%
- Annexin V+/PI− (%) [13]: 4%
- Annexin V−/PI− (%) [13]: 88%
- Annexin V+/PI+ (%) [14]: 6%
- Annexin V+/PI− (%) [14]: 8%
- Annexin V−/PI− (%) [14]: 86%
- Annexin V+/PI+ (%) [15]: 6%
- Annexin V+/PI− (%) [15]: 4%
- Annexin V−/PI− (%) [15]: 90%
- Annexin V+/PI+ (%) [16]: 9%
- Annexin V+/PI− (%) [16]: 9%
- Annexin V−/PI− (%) [16]: 83%
- Annexin V+/PI+ (%) [17]: 8%
- Annexin V+/PI− (%) [17]: 4%
- Annexin V−/PI− (%) [17]: 87%
- Annexin V+/PI+ (%) [18]: 10%
- Annexin V+/PI− (%) [18]: 8%
- Annexin V−/PI− (%) [18]: 83%
- Annexin V+/PI+ (%) [19]: 10%
- Annexin V+/PI− (%) [19]: 4%
- Annexin V−/PI− (%) [19]: 85%
- Annexin V+/PI+ (%) [20]: 11%
- Annexin V+/PI− (%) [20]: 10%
- Annexin V−/PI− (%) [20]: 79%
- Annexin V+/PI+ (%) [21]: 12%
- Annexin V+/PI− (%) [21]: 5%
- Annexin V−/PI− (%) [21]: 82%
- Annexin V+/PI+ (%) [22]: 14%
- Annexin V+/PI− (%) [22]: 11%
- Annexin V−/PI− (%) [22]: 75%
- Annexin V+/PI+ (%) [23]: 13%
- Annexin V+/PI− (%) [23]: 4%
- Annexin V−/PI− (%) [23]: 82%
- Annexin V+/PI+ (%) [24]: 34%
- Annexin V+/PI− (%) [24]: 16%
- Annexin V−/PI− (%) [24]: 50%
- Annexin V+/PI+ (%) [25]: 18%
- Annexin V+/PI− (%) [25]: 4%
- Annexin V−/PI− (%) [25]: 77%
- Annexin V+/PI+ (%) [26]: 72%
- Annexin V+/PI− (%) [26]: 21%
- Annexin V−/PI− (%) [26]: 7%
- Annexin V+/PI+ (%) [27]: 33%
- Annexin V+/PI− (%) [27]: 3%
- Annexin V−/PI− (%) [27]: 63%
- Annexin V+/PI+ (%) [28]: 7%
- Annexin V+/PI− (%) [28]: 3%
- Annexin V−/PI− (%) [28]: 89%
- Annexin V+/PI+ (%) [29]: 5%
- Annexin V+/PI− (%) [29]: 2%
- Annexin V−/PI− (%) [29]: 92%
- Annexin V+/PI+ (%) [30]: 7%
- Annexin V+/PI− (%) [30]: 3%
- Annexin V−/PI− (%) [30]: 90%
- Annexin V+/PI− (%) [31]: 3%
- Annexin V−/PI− (%) [31]: 89%
- Annexin V+/PI− (%) [32]: 3%
- Annexin V−/PI− (%) [32]: 83%
- Annexin V+/PI− (%) [33]: 3%
- Annexin V−/PI− (%) [33]: 80%
- Annexin V+/PI− (%) [34]: 3%
- Annexin V−/PI− (%) [34]: 78%
- Annexin V+/PI+ (%) [35]: 23%
- Annexin V+/PI− (%) [35]: 3%
- Annexin V−/PI− (%) [35]: 72%
- Annexin V+/PI+ (%) [36]: 32%
- Annexin V+/PI− (%) [36]: 3%
- Annexin V−/PI− (%) [36]: 61%
- Annexin V+/PI+ (%) [37]: 62%
- Annexin V+/PI− (%) [37]: 2%
- Annexin V−/PI− (%) [37]: 30%
